Calls of active or inactive are those of the source.
How the values were obtained:
[1] = tested on: Streptococcus sp. 'group A'; assay: Streptococcus pyogenes SK(-)GAS viability under kanamycin – luminescence, BacTiterGlo, confirmation, counter-screen for streptokinase expression inhibitor project, dose response (AID 1900); type: functional, organism-based
[2] = target: T1, Streptokinase A (Streptococcus pyogenes serotype M1, UniProt P10520); assay: viability-normalized secreted streptokinase activity reduction – plasminogen activation absorbance, OD405, dose response (AID 1914); type: functional, Streptococcus pyogenes M1 GAS;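 note: secreted streptokinase activity via plasminogen activation per viability signal from cell pellet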
T1 sequence (P10520 whole entry): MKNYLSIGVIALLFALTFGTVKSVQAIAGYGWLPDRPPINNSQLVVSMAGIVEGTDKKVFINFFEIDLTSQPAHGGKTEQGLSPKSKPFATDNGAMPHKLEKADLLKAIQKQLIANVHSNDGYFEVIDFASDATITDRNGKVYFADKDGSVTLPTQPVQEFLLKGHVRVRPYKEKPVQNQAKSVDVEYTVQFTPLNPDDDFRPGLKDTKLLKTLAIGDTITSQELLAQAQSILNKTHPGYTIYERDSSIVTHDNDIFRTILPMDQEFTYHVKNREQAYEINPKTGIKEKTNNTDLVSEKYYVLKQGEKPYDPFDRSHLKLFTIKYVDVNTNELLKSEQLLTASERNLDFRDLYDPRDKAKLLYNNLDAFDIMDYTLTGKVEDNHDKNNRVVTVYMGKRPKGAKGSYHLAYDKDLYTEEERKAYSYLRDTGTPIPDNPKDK

[3] = tested on: Streptococcus; assay: GAS UMAA2166 growth inhibition – luminescence, BacTiterGlo, counter-screen for streptokinase expression inhibitor project, dose response (AID 1915); type: functional, organism-based;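 note: potency for reduction of bacterial viability or growth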
[4] = target: Cytochrome P450 2C9 (Homo sapiens, UniProt P11712)
[5] = target: T2, Rac GTPase-activating protein 1 (Homo sapiens, UniProt Q9H0H5); assay: blockers of MgcRacGAP-driven Rac1 GTP hydrolysis – biochemical, ADP Hunter fluorescence, primary and confirmatory, confirmation (AID 624330); type: functional
T2 sequence (Q9H0H5 whole entry): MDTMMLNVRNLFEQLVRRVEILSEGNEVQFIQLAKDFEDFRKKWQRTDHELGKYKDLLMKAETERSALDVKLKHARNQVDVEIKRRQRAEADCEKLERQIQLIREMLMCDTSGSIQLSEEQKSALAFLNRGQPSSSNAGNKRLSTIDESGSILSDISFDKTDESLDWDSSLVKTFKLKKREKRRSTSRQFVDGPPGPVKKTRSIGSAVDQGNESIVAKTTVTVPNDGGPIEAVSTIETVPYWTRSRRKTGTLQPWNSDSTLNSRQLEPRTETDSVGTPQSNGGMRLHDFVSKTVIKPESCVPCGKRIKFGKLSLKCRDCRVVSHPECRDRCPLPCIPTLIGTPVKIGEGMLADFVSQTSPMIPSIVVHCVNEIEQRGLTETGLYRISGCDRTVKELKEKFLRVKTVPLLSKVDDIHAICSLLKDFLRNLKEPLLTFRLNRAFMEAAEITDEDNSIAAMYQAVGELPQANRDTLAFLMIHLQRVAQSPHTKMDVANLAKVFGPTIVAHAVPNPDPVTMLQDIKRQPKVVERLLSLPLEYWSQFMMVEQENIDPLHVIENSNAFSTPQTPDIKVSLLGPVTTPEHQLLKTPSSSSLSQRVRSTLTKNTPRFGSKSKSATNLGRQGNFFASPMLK

[6] = target: T3, Heat shock factor protein 1 (Mus musculus, UniProt P38532); assay: enhancement of HSF1-driven luciferase signal – cell-based, NIH3T3, luminescence, dose retest, confirmation (AID 435004); type: functional;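 note: stress induced by proteasome inhibitor MG132 added 30 min after compound; luciferase reporter driven by HSF1 response element in NIH3T3 cells; actives raise luminescence as potentiators of the MG132 stress response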
T3 sequence (P38532 whole entry): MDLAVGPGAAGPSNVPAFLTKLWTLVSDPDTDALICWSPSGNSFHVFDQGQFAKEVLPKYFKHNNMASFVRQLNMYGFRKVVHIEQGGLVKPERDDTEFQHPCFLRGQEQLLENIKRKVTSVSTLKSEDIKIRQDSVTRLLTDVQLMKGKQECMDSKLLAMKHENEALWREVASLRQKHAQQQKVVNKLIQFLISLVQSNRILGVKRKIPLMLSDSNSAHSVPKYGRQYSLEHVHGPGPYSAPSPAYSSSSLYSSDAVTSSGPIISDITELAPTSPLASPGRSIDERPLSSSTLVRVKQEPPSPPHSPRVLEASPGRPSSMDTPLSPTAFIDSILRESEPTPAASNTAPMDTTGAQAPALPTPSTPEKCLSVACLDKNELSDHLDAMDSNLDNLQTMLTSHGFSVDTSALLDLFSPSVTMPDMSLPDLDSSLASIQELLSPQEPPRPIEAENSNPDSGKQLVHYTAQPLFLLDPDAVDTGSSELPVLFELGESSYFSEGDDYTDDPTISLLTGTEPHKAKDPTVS

[7] = reduction of Shn3 3'UTR-driven luciferase in osteoblasts – cell-based, Clone20 osteoblasts, firefly luciferase, cherry-picked, dose response (AID 624132); type: functional;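 note: firefly luciferase luminescence from reporter carrying the Shn3 3'UTR in osteoblasts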
[8] = loss of viability in HepG2 cells – cell-based, CellTiter-Glo, cherry-picked, cytotoxicity control for Shn3 inhibitor project, dose response (AID 624134); type: functional
[9] = non-specific 3'UTR reporter inhibition in Clone20-Shn3RL – cell-based, Renilla luciferase, cherry-picked, counter-screen for Shn3 inhibitor project, dose response (AID 624133); type: functional

Chain of Cytochrome P450 2C9 (P11712 whole entry): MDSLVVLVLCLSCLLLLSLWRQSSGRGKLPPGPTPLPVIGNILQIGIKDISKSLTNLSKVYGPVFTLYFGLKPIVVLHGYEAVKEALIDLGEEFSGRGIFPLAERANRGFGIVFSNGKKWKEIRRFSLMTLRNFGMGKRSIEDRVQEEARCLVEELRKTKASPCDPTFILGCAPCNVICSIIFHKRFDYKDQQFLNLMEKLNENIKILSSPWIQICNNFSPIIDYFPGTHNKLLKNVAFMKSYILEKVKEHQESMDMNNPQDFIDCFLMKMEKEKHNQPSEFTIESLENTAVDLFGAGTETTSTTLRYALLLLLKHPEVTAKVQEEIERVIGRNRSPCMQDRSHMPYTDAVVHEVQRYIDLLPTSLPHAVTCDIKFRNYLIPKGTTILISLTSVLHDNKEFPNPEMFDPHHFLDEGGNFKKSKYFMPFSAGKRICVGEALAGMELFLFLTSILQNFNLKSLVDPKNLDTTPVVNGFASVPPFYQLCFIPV

In the case of `Cc1cc(NC(=S)N(Cc2ccc(Cl)cc2)Cc2ccc(C(=O)O)cc2)ccc1Cl`, the EC50 [1] is reported as 10.1 µM (active), the EC50 [2] is reported as > 150 µM (not active) and the EC50 [3] is reported as > 150 µM (not active).

In the case of `COc1cc(-c2ccc(NC(=O)NC3CC3)c(OC)c2)ccc1NC(=O)NC1CC1`, the EC50 [1] is reported as 117 µM (active), the EC50 [2] is reported as > 150 µM (not active) and the EC50 [3] is reported as 135 µM (active).

For `O=c1cc2c(nn1Cc1ccc(Cl)cc1Cl)-c1ccccc1CC2`, the EC50 [1] was 7.36 µM (active), the EC50 [2] was 11 µM (active) and the EC50 [3] was 17.6 µM (active).

In the case of `COCC(=O)N1CCC2(CCCN(c3ccc(-c4ccccc4)cc3)C2)CC1`, the AC50 [4] is reported as 20 µM (inconclusive).

In the case of `O=[N+]([O-])c1cccc(-c2nc(-c3ccncc3)no2)c1`, the AC50 [4] is reported as 8.91 µM (inconclusive).

In the case of `O=[N+]([O-])c1ccc(N2CCN(CCOCCO)CC2)c([N+](=O)[O-])c1`, the IC50 [5] is reported as 204 µM (active).

With `Oc1cc(O)nc(SCc2ccc(Cl)cc2)n1` the EC50 [1] was 81.5 µM (active), the EC50 [2] was > 150 µM (not active) and the EC50 [3] was > 150 µM (not active).

For `COc1cccc(CNCC(O)(c2ccc(Cl)cc2)c2ccc(Cl)cc2)c1`, the EC50 [1] was 3.15 µM (active), the EC50 [2] was 18.9 µM (active) and the EC50 [3] was 18.2 µM (active).

In the case of `COc1ccc(CN2CCC(C(N)=O)CC2)cc1OCc1ccccc1`, the IC50 [5] is reported as 204 µM (active).

For `CCn1c(SCC(=O)c2ccccc2)nnc1-c1cccs1`, the AC50 [4] was 28.2 µM (inconclusive).

For `COc1ccc(N=C(S)Nc2ccccc2SC)c(OC)c1`, the EC50 [6] was > 260 µM (inactive).

In the case of `O=C(NCc1ccco1)C1CC(O)CN1C(=O)Nc1ccccc1` (configuration not stated), the EC50 [6] is reported as > 260 µM (inactive).

With `COc1cc(OC)c(OC)cc1CNC(=O)c1cccc(S(=O)(=O)N2CCc3ccccc3C2)c1` the AC50 [7] was 2.39 µM (active), the AC50 [8] was 3.08 µM (active) and the AC50 [9] was 24 µM (active).

For `COc1ccc(C)cc1Cn1c(S(C)(=O)=O)nc2ccccc21`, the EC50 [6] was > 260 µM (inactive).

For `O=C(/C=C/c1ccc(Cl)cc1)NCCSc1ccccc1`, the AC50 [4] was 5.01 µM (inconclusive).

For `Cn1c(CCC(=O)OCC(=O)Nc2ccc(Oc3ccccc3)cc2)nc(=O)c2ccccc21`, the EC50 [6] was > 260 µM (inactive).

For `COc1ccccc1CNCC(=O)Nc1ccccc1-n1cccc1`, the IC50 [5] was 179 µM (active).

For `O=S(=O)(NC(=Nc1cccc2ccccc12)c1ccccc1)c1ccc(F)cc1`, the EC50 [6] was > 260 µM (inactive).

With `COc1ccc(S(=O)(=O)NCC(c2ccc(F)cc2)N2CCN(C)CC2)cc1` (configuration not stated) the EC50 [1] was > 150 µM (not active), the EC50 [2] was > 150 µM (not active) and the EC50 [3] was > 150 µM (not active).

With `Cn1c(=O)c2c(nc(NCCO)n2C)n(C)c1=O` the EC50 [6] was > 260 µM (inactive).

For `CC(=O)c1cccc(NS(=O)(=O)c2ccc(N/C=C\C(=O)c3ccc(C)cc3)cc2)c1`, the AC50 [7] was 1.51 µM (active), the AC50 [8] was > 70 µM (inactive) and the AC50 [9] was 19.6 µM (active).

Reference: ChEMBL document CHEMBL1201862, “PubChem BioAssay data set” (2004)
